# Experimental data: US20230210797A1, “PREVENTING AND TREATING HYPOGLYCEMIA” (DIAMYD MEDICAL AB, priority 2019, published 2023)
# Tested on: cortisol
# Assay: Hypoglycemic clamp: plasma cortisol levels
# Type: in vivo, human
# Conditions: for Cortisol levels, Change from baseline, Mean (SD) / Cortisol levels, Change from baseline, Median (Min, Max) / Cortisol levels, Observed value, Mean (SD) / Cortisol levels, Observed value, Median (Min, Max): C-peptide undetectable
# Experimental: In order to evaluate the counterregulatory hormone response to hypoglycemia, a hypoglycemic clamp will be performed. The Hypoglycemic Clamp must be performed according to the instructions in the Operations Manual. (Appendix 3)
# The patient should: • Come to the study site following an overnight fast (>10 hours), i.e. the patient may not eat but is permitted to drink water • Not have taken the Remygen and, if applicable, Alprazolam dose in the morning • Not take short acting/direct acting insulin within 6 hours before the investigation. • The patient is allowed to take base-insulin day/night before, but not in the morning before the investigation.
# Patients with CSII (insulin pump) must continue with their basal dose insulin, but not add bolus dose during the last 6 hours before the investigation.
# If a patient has a blood sugar level <4 mmol/L in the morning of the scheduled visit, the patient is allowed to take dextrose tablets and then come to the study site. The patient is allowed to perform the investigation if the blood sugar level is >4 mmol/L.
# In the dose-escalation part of the study, the patient will take study drug 30 min prior to start of the hypoglycemic clamp. In the main study, the study drug will instead be taken after finalization of the hypoglycemic clamp. Baseline blood samples will be obtained for glucose, glucagon, epinephrine, norepinephrine, growth hormone and cortisol. The clamp will then be initiated by an intravenous insulin infusion at a rate of 2 mU×kg^−1×min^−1. Glucose 100 mg/ml will then be administered in variable infusion rates to clamp the blood glucose concentration at 5.5 mmol/land then at 2.5 mmol/land kept stable for 30 min. Blood glucose will be evaluated repeatedly in order to find the optimal glucose infusion rate. Blood sampling to determined levels of counterregulatory hormones as described above will be performed at each of these target levels when a stable glucose concentration has been reached. The insulin infusion will thereafter be terminated and the patient is allowed to eat and will be observed until normoglycemia is achieved. If necessary, additional glucose administration will be given to allow blood glucose concentrations to normalize.
# Only patients with c-peptide levels that were undetectable (in a standard assay, i.e. <0.01 nmol/L) are included (5 of 6) in the data below.
# Plasma levels of glucagon, cortisol, epinephrine, growth hormone and glucose were measured at baseline (increased glucose in T1D subjects). Plasma glucose was first lowered to normoglycemic levels (5.5 mmol/L) and hormone levels monitored, and then to hypoglycemic levels (2.5 mmol/L) and hormone levels monitored. Difference was calculated as a measurement of the response to hypoglycemia.
# [1] = Visit 5, 200 mg GABA per day, Event 2.5 mmol/L
# [2] = Visit 5, 200 mg GABA per day, Event 5.5 mmol/L
# [3] = Visit 5, 200 mg GABA per day, Event Baseline
# [4] = Visit 5, 200 mg GABA per day, Event Diff 2.5-5.5 mmol/L
# [5] = Visit 7, 600 mg GABA per day, Event 2.5 mmol/L
# [6] = Visit 7, 600 mg GABA per day, Event 5.5 mmol/L
# [7] = Visit 7, 600 mg GABA per day, Event Baseline
# [8] = Visit 7, 600 mg GABA per day, Event Diff 2.5-5.5 mmol/L
# [9] = Visit 9, 1200 mg GABA per day, Event 2.5 mmol/L
# [10] = Visit 9, 1200 mg GABA per day, Event 5.5 mmol/L
# [11] = Visit 9, 1200 mg GABA per day, Event Baseline
# [12] = Visit 9, 1200 mg GABA per day, Event Diff 2.5-5.5 mmol/L
smiles,measurement,setting,value
"NCCCC(=O)O [GABA, Gamma-amino butyric acid]","Cortisol levels, Change from baseline, Mean (SD)",[1],49.6 nmol/L
same,"Cortisol levels, Change from baseline, Median (Min, Max)",[1],40.0 nmol/L
same,"Cortisol levels, Observed value, Mean (SD)",[1],356.2 nmol/L
same,"Cortisol levels, Observed value, Median (Min, Max)",[1],334.0 nmol/L
same,"Cortisol levels, Change from baseline, Mean (SD)",[2],-141.8 nmol/L
same,"Cortisol levels, Change from baseline, Median (Min, Max)",[2],-179.0 nmol/L
same,"Cortisol levels, Observed value, Mean (SD)",[2],198.8 nmol/L
same,"Cortisol levels, Observed value, Median (Min, Max)",[2],176.0 nmol/L
same,"Cortisol levels, Change from baseline, Mean (SD)",[3],-198.8 nmol/L
same,"Cortisol levels, Change from baseline, Median (Min, Max)",[3],-196.0 nmol/L
same,"Cortisol levels, Observed value, Mean (SD)",[3],215.0 nmol/L
same,"Cortisol levels, Observed value, Median (Min, Max)",[3],213.0 nmol/L
same,"Cortisol levels, Change from baseline, Mean (SD)",[4],191.4 nmol/L
same,"Cortisol levels, Change from baseline, Median (Min, Max)",[4],125.0 nmol/L
same,"Cortisol levels, Observed value, Mean (SD)",[4],157.4 nmol/L
same,"Cortisol levels, Observed value, Median (Min, Max)",[4],162.0 nmol/L
same,"Cortisol levels, Change from baseline, Mean (SD)",[5],51.8 nmol/L
same,"Cortisol levels, Change from baseline, Median (Min, Max)",[5],36.0 nmol/L
same,"Cortisol levels, Observed value, Mean (SD)",[5],358.4 nmol/L
same,"Cortisol levels, Observed value, Median (Min, Max)",[5],360.0 nmol/L
same,"Cortisol levels, Change from baseline, Mean (SD)",[6],-157.0 nmol/L
same,"Cortisol levels, Change from baseline, Median (Min, Max)",[6],-185.0 nmol/L
same,"Cortisol levels, Observed value, Mean (SD)",[6],183.6 nmol/L
same,"Cortisol levels, Observed value, Median (Min, Max)",[6],166.0 nmol/L
same,"Cortisol levels, Change from baseline, Mean (SD)",[7],-222.6 nmol/L
same,"Cortisol levels, Change from baseline, Median (Min, Max)",[7],-217.0 nmol/L
same,"Cortisol levels, Observed value, Mean (SD)",[7],191.2 nmol/L
same,"Cortisol levels, Observed value, Median (Min, Max)",[7],189.0 nmol/L
same,"Cortisol levels, Change from baseline, Mean (SD)",[8],208.8 nmol/L
same,"Cortisol levels, Change from baseline, Median (Min, Max)",[8],141.0 nmol/L
same,"Cortisol levels, Observed value, Mean (SD)",[8],174.8 nmol/L
same,"Cortisol levels, Observed value, Median (Min, Max)",[8],194.0 nmol/L
same,"Cortisol levels, Change from baseline, Mean (SD)",[9],6.6 nmol/L
same,"Cortisol levels, Change from baseline, Median (Min, Max)",[9],29.0 nmol/L
same,"Cortisol levels, Observed value, Mean (SD)",[9],313.2 nmol/L
same,"Cortisol levels, Observed value, Median (Min, Max)",[9],285.0 nmol/L
same,"Cortisol levels, Change from baseline, Mean (SD)",[10],-117.2 nmol/L
same,"Cortisol levels, Change from baseline, Median (Min, Max)",[10],-115.0 nmol/L
same,"Cortisol levels, Observed value, Mean (SD)",[10],223.4 nmol/L
same,"Cortisol levels, Observed value, Median (Min, Max)",[10],193.0 nmol/L
same,"Cortisol levels, Change from baseline, Mean (SD)",[11],-196.0 nmol/L
same,"Cortisol levels, Change from baseline, Median (Min, Max)",[11],-191.0 nmol/L
same,"Cortisol levels, Observed value, Mean (SD)",[11],217.8 nmol/L
same,"Cortisol levels, Observed value, Median (Min, Max)",[11],226.0 nmol/L
same,"Cortisol levels, Change from baseline, Mean (SD)",[12],123.8 nmol/L
same,"Cortisol levels, Change from baseline, Median (Min, Max)",[12],83.0 nmol/L
same,"Cortisol levels, Observed value, Mean (SD)",[12],89.8 nmol/L
same,"Cortisol levels, Observed value, Median (Min, Max)",[12],-10.0 nmol/L
same,"Counter regulatory response of Cortisol, effect of GABA treatment",change in levels when clamping to 2.5 mmol/L from 5.5 mmol/L,increased
same,"Normoglycemic levels of Cortisol, effect of GABA treatment",clamped to 5.5 mmol/L,decrease
